Data taken from patent US20240252693A1, “FOLATE RECEPTOR-TARGETED RADIOTHERAPEUTIC AGENTS AND THEIR USE” (Novartis AG, priority 2021, published 2024).

Columns and labels:
[1] = target: T1, folate receptor (FR) on KB cells (Homo sapiens, UniProt P15328); test: Relative affinity assay: displacement of [3H]folic acid from FR-positive KB cells; format: binding; conditions: inverse molar ratio to displace 50% of 100 nmol/L [3H]FA, 1 h 37 °C, folic acid set to 1
T1 construct: endogenous in cells; host or cells: KB cells
T1 sequence (P15328 25-234): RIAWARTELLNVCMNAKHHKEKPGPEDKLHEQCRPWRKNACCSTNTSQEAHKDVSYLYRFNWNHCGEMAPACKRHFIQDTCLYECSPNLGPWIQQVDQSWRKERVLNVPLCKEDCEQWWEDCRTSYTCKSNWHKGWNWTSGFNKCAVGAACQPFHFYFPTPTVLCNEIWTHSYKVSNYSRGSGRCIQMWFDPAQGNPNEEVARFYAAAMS
Method: FR-positive KB cells were seeded in 24-well Falcon plates and allowed to form adherent monolayers (>90% confluent) overnight in FDRPMI/10% FCS media. Spent incubation medium was replaced with FFRPMI supplemented with 10% HIFCS and containing 100 nmol/L of [^3H]FA in the absence and presence of increasing concentrations of unlabeled folic acid (FA), Compound 34, Compound 37, or non-targeted control (Table 14). Cells were incubated for 1 h at 37° C. and then rinsed three times with 0.5 mL PBS (phosphate-buffered saline). Five hundred microliters of 1% SDS (sodium dodecyl sulfate) in PBS were added to each well; after 5 min, cell lysates were collected, transferred to individual vials containing 5 mL of scintillation cocktail, and then counted for radioactivity. Cells exposed to only the [^3H]FA in FFRPMI (no competitor) were designated as negative controls, whereas cells exposed to the [^3H]FA plus 1 mmol/L unlabeled FA served as positive controls. Disintegrations per minute (DPM) measured in the latter samples (representing nonspecific binding of label) were subtracted from the DPM values from all samples. Relative affinities were defined as the inverse molar ratio of compound required to displace 50% of [^3H]FA bound to FR on KB cells, and the relative affinity of FA for the FR was set to 1.

[2] = target: T2, folate receptors on FR-positive KB cells (Homo sapiens, UniProt P15328); test: Binding affinity assay: direct binding of 177Lu-labelled compounds to FR-positive KB cells; conditions: 177Lu-labelled compound, 1 h 37 °C
T2 construct: endogenous in cells; host or cells: KB cells
T2 sequence (P15328 25-234): as above
Method: FR-positive KB cells and FR-negative A549 cells were seeded in 24-well Falcon plates and allowed to form adherent monolayers (>90% confluent) overnight in FFRPMI/HIFCS. Spent incubation medium was replaced with FFRPMI supplemented with 10% HIFCS containing increasing concentrations (0.78 to 100 nmol/L) of [^177Lu]-Compound 34, [^177Lu]-Compound 37, or [^177Lu]-(non-targeted control) in the absence and presence of 10 μM FA. Cells were incubated for 1 h at 37° C. and then rinsed three times with 0.5 mL PBS. Five hundred microliters of 1% NaOH in PBS were added to each well; after 5 min, cell lysates were collected, transferred to individual tubes, and then counted for radioactivity on a gamma counter. Counts per minute (CPM) values were measured in all samples and plotted against concentration of [^177Lu]-Compound 34, [1^77Lu]-Compound 37, or [^177Lu]-(non-targeted control) using GraphPad Prism 8 program. Dissociation constants (Kd) was calculated using a GraphPad's nonlinear regression one site binding method.

[3] = test system: FR-positive M109 tumor; test: In vivo biodistribution in mice bearing M109 tumors; conditions: 177Lu chelate
Source text: Four- to eight-week-old female nu/nu mice or NSG mice (Harlan Sprague-Dawley, Inc.) were maintained on a standard 12-h light-dark cycle and fed ad libitum with Folate deficient purified rodent diet (TestDiet #AIN-93G) for the duration of the experiment. FR-positive M109 or FR-negative HT29 tumor cells were inoculated in the subcutis dorsal medial area of mice. The biodistribution studies were typically performed when tumors were approximately 400-800 mm^3 in volume. Mice were divided into groups of three, and freshly prepared test articles and competitors were injected through the lateral tail vein in a volume of 100 μL/10 g of PBS. Four h to six days post radioactive-agent dose administration, mice were euthanized and organs (blood, heart, lungs, liver, spleen, and kidneys, intestine, stomach, muscle, brain and tumor) were collected, weighed and placed inside counting vials. Each tissue sample was counted for the activities of radioelement using a gamma-counter. Samples of the injectate were used as decay correction standards. Final bar graphs are expressed as % injected dose per gram of tissue or tumor to kidney ratio, or % tumor to (kidneys+liver+spleen) ratio.

[4] = test system: KB tumor; test: In vivo biodistribution in mice bearing KB tumors; conditions: 225Ac chelate, 30 nmol/kg
[5] = test system: FR-positive IGROV-1 tumor; test: In vivo biodistribution in Athymic Nude-Foxn1nu mice bearing IGROV-1 tumors; conditions: 177Lu chelate, 600 nmol/kg, 24 h post injection, mean ± SD
Method: Six week old female Athymic Nude-Foxn1nu mice (Envigo) were maintained on a standard 12-h light-dark cycle and fed ad libitum with folate deficient purified rodent dies (SSniff #E15321-147) for the duration of the experiment. FR-positive IGROV-1 tumor cells were inoculated in the subcutis dorsal medial area of mice. The biodistribution studies were […]. Mice were divided into groups of four, and freshly prepared test articles were injected through the lateral tail vein in a volume of 100 μL/10 g of PBS. Four h to 24 h post radioactive agent dose administration, mice were euthanized and organs (blood, bone, bowel (large and small), brain, heart, kidneys, liver, lungs, salivary glands, skeletal muscle, skin, spleen, stomach and tumor) were collected, weight and placed inside counting vials. Each tissue sample was counted for the activities of radioelement using a gamma-counter. Samples of the injective were used as decay correction standards. Final bar graph is expressed as % injected dose per gram of tissue FIG. 9.

Direct Binding (Kd, nM) [2]	T/Kid [4]	T/Liv [4]	T/spl [4]	Compound	Relative Binding Affinity [1]	T/Kid ([3]; 300 nmol/kg)	T/Liv ([3]; 300 nmol/kg)	T/spl ([3]; 300 nmol/kg)	T^2/kid ([3]; 300 nmol/kg)	T/Kid ([3]; 600 nmol/kg)	T/Liv ([3]; 600 nmol/kg)	T/spl ([3]; 600 nmol/kg)	T^2/kid ([3]; 600 nmol/kg)	T/Kid [5]	T/Liv [5]	T/spl [5]
Non- binder	–	–	–	O=C(O)CN1CCN(CC(=O)O)CCN([C@@H](CCC(=O)NC[C@H](NC(=O)c2ccc(NCc3ccc4ccccc4c3)cc2)C(=O)O)C(=O)O)CCN(CC(=O)O)CC1 [(non- targeted control), reference compound]	Non- binder	–	–	–	–	–	–	–	–	–	–	–
–	0.08 +/− 0.03	1.8 +/− 0.7	10.1 +/− 4.7	Nc1nc2ncc(CNc3ccc(C(=O)N[C@@H](CCCCNC(=O)[C@H](Cc4ccc5ccccc5c4)NC(=O)[C@H]4CC[C@H](CNC(=O)CN5CCN(CC(=O)O)CCN(CC(=O)O)CCN(CC(=O)O)CC5)CC4)C(=O)O)cc3)nc2c(=O)[nH]1 [Compound 23]	–	0.37 +/− 0.11	25.8 +/− 2.4	108 +/− 12.7	1.47 +/− 0.66	–	–	–	–	–	–	–
–	–	–	–	Nc1nc2ncc(CNc3ccc(C(=O)N[C@@H](CCCCNC(=O)C[C@H](NC(=O)[C@H](Cc4ccc5ccccc5c4)NC(=O)CNC(=O)CN4CCN(CC(=O)O)CCN(CC(=O)O)CCN(CC(=O)O)CC4)C(=O)O)C(=O)O)cc3)nc2c(=O)[nH]1 [Compound 34, 2,2′,2″-(10-((3S,11S,14S)-1-(4-(((2-amino-4-oxo-3,4-dihydropteridin-6-yl)methyl)amino)phenyl)-3,11-dicarboxy-14-(naphthalen-2-ylmethyl)-1,9,13,16,19-pentaoxo-2,8,12,15,18-pentaazaicosan-20-yl)-1,4,7,10-tetraazacyclododecane-1,4,7-triyl)triacetic acid]	2.21	0.55 +/− 0.1	25.3 +/− 6.6	98.3 +/− 25.1	1.7 +/− 0.9	0.80 +/− 0.18	29.1 +/− 5.4	92.8 +/− 5.4	1.97 +/− 0.7	0.29 +/− 0.05	1.53 +/− 0.57	0.49 +/− 0.07
–	–	–	–	Nc1nc2ncc(CNc3ccc(C(=O)N[C@@H](CCCCNC(=O)COc4ccc(C[C@H](NC(=O)CNC(=O)CN5CCN(CC(=O)O)CCN(CC(=O)O)CCN(CC(=O)O)CC5)C(=O)O)cc4)C(=O)O)cc3)nc2c(=O)[nH]1 [Compound 37, 2,2′,2″-(10-(2-((2-(((S)-2-(4-(2-(((S)-5-(4-(((2-amino-4-oxo-3,4-dihydropteridin-6-yl)methyl)amino)benzamido)-5-carboxypentyl)amino)-2-oxoethoxy)phenyl)-1-carboxyethyl)amino)-2-oxoethyl)amino)-2-oxoethyl)-1,4,7,10-tetraazacyclododecane-1,4,7-triyl)triacetic acid]	1.53	0.46 +/− 0.14	13.2 +/− 4.5	61.9 +/− 14.4	1.51 +/− 0.57	–	–	–	–	0.15 +/− 0.03	1.37 +/− 0.37	0.49 +/− 0.17
